Results from PMC10412597, “Small molecule branched-chain ketoacid dehydrogenase kinase (BDK) inhibitors with opposing effects on BDK protein levels” (Nature Communications, 2023).

What was measured:
Parameters in all cases: Invitrogen kinase panel, per cent inhibition of kinase activity
STK3 = target: T1, STK3 (Homo sapiens, UniProt Q13188); details: 10 µM, inhibitor
T1 sequence (Q13188 1-491): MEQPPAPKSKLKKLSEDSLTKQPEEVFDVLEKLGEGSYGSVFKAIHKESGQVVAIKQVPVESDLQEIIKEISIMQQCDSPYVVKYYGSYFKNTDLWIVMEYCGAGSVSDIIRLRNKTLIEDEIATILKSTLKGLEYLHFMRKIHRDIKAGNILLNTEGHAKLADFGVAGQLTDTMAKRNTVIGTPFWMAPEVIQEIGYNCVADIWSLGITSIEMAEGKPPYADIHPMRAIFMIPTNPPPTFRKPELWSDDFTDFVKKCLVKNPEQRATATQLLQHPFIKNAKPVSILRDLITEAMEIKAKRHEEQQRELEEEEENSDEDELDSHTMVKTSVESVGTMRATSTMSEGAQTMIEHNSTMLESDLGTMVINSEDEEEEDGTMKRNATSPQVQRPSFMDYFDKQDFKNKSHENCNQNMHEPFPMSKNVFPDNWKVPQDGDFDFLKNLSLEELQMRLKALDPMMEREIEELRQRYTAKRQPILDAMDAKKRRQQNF
Description: (§1) To discover a potent and selective BDK inhibitor, a subset of the Pfizer compound collection was screened. […] Off target activity was assessed in both CEREP and kinase panels (Supplementary Tables 2, 3).

NTRK1 = NTRK1 (Homo sapiens, UniProt P04629); details: 10 µM, inhibitor
NTRK1, sequence (P04629 whole entry): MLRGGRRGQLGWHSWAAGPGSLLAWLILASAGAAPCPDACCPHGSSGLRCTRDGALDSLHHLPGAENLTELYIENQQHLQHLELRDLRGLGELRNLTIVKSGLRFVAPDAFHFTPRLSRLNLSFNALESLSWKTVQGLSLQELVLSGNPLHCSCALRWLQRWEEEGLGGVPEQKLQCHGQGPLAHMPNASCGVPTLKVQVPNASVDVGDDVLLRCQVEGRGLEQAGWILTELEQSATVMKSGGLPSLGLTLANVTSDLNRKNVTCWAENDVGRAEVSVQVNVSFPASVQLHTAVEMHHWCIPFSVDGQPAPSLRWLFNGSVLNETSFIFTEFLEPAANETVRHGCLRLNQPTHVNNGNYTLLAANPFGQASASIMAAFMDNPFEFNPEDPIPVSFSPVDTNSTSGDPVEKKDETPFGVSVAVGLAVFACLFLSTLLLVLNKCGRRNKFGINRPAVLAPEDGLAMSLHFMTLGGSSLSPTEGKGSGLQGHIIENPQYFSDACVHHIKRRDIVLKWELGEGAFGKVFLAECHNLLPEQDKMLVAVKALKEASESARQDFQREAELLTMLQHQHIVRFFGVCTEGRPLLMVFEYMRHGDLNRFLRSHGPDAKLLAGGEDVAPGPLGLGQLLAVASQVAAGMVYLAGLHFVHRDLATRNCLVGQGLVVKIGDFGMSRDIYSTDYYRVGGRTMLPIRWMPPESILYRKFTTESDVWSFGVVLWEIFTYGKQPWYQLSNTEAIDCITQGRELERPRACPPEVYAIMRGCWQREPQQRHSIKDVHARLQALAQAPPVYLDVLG
Description: as §1

PAK4 = PAK4 (Homo sapiens, UniProt O96013); details: 10 µM, inhibitor
PAK4, sequence (O96013 whole entry): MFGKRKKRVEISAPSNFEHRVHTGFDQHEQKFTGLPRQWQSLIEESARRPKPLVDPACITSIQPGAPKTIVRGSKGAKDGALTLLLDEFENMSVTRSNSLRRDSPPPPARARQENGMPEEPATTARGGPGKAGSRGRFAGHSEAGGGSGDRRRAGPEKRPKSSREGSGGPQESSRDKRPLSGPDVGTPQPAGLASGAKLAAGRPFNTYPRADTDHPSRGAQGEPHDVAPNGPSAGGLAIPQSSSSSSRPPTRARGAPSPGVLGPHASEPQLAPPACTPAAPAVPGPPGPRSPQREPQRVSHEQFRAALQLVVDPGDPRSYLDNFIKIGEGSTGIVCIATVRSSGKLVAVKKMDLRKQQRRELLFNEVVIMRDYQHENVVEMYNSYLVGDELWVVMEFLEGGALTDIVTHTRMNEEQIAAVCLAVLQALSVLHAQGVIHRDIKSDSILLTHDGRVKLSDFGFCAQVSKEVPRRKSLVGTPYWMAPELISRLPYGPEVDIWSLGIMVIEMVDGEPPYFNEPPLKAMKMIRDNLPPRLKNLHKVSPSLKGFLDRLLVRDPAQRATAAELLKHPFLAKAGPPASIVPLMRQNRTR
Description: as §1

CHEK1 = target: T2, CHEK1 (Homo sapiens, UniProt O14757); details: 10 µM, inhibitor
T2 sequence (O14757 1-476): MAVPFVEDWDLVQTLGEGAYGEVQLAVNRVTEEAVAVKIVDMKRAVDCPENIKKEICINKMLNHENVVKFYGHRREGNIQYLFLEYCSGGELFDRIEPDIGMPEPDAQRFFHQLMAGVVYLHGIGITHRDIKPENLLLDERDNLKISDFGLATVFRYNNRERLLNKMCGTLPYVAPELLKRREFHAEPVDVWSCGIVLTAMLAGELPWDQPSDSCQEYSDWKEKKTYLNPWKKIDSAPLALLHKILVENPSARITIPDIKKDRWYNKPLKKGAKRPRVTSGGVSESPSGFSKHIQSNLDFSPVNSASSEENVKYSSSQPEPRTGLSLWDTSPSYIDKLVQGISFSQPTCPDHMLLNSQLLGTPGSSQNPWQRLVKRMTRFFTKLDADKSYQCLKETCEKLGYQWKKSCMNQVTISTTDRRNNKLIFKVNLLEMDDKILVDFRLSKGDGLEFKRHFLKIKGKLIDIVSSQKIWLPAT
Description: as §1

PDPK1 = target: T3, PDPK1 (Homo sapiens, UniProt O15530); details: 10 µM, inhibitor
T3 sequence (O15530 1-556): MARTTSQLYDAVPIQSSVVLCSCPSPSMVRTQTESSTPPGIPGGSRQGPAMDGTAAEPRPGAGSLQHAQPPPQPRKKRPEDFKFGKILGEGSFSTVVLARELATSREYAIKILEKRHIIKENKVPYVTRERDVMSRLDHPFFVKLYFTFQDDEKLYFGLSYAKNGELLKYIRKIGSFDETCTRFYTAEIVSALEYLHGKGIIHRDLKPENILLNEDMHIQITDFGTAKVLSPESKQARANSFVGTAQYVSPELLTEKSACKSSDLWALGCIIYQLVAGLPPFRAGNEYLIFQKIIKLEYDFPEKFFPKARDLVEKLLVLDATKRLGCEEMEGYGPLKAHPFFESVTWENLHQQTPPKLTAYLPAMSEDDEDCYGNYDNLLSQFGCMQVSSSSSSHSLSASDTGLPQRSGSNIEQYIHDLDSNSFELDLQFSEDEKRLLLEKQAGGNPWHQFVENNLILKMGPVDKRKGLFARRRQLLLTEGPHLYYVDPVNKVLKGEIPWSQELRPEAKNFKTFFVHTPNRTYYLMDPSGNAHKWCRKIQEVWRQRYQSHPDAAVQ
Description: as §1

HER4 = target: T4, HER4 (Homo sapiens, UniProt Q15303); details: 10 µM, inhibitor
T4 construct: gene ERBB4
Description: as §1

MEK1 = target: T5, MEK1 (Homo sapiens, UniProt Q02750); details: 10 µM, inhibitor
T5 construct: gene MAP2K1
T5 sequence (Q02750 whole entry): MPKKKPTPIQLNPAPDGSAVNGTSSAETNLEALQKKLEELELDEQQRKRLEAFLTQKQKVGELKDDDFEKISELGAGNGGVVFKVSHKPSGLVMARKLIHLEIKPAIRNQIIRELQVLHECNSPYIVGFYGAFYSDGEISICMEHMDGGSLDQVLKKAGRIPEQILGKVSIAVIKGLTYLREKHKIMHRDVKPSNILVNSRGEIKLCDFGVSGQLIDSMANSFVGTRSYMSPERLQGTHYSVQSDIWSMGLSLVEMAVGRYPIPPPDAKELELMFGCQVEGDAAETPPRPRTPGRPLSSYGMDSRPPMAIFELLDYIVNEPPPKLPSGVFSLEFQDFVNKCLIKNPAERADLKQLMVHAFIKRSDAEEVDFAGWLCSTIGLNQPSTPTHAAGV
Description: as §1

SPHK2 = SPHK2 (Homo sapiens, UniProt Q9NRA0); details: inhibitor
Description: as §1

mTOR = mTOR (Homo sapiens, UniProt P42345); details: 10 µM, inhibitor
Description: as §1

MAPKAPK2 = MAPKAPK2 (Homo sapiens, UniProt P49137); details: 10 µM, inhibitor
MAPKAPK2, sequence (P49137 whole entry): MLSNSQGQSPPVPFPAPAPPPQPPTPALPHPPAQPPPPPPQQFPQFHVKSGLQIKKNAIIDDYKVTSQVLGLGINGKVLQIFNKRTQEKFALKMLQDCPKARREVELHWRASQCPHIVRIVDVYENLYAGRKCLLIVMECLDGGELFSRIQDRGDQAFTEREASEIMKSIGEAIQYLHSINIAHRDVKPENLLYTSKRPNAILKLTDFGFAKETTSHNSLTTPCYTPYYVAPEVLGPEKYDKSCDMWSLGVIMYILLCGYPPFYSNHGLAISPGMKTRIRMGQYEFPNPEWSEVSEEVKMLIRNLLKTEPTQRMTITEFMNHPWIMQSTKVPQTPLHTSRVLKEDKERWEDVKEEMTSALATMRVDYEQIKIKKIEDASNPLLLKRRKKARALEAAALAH
Description: as §1

TEK = TEK (Homo sapiens, UniProt Q02763); details: 10 µM, inhibitor
TEK, sequence (Q02763 whole entry): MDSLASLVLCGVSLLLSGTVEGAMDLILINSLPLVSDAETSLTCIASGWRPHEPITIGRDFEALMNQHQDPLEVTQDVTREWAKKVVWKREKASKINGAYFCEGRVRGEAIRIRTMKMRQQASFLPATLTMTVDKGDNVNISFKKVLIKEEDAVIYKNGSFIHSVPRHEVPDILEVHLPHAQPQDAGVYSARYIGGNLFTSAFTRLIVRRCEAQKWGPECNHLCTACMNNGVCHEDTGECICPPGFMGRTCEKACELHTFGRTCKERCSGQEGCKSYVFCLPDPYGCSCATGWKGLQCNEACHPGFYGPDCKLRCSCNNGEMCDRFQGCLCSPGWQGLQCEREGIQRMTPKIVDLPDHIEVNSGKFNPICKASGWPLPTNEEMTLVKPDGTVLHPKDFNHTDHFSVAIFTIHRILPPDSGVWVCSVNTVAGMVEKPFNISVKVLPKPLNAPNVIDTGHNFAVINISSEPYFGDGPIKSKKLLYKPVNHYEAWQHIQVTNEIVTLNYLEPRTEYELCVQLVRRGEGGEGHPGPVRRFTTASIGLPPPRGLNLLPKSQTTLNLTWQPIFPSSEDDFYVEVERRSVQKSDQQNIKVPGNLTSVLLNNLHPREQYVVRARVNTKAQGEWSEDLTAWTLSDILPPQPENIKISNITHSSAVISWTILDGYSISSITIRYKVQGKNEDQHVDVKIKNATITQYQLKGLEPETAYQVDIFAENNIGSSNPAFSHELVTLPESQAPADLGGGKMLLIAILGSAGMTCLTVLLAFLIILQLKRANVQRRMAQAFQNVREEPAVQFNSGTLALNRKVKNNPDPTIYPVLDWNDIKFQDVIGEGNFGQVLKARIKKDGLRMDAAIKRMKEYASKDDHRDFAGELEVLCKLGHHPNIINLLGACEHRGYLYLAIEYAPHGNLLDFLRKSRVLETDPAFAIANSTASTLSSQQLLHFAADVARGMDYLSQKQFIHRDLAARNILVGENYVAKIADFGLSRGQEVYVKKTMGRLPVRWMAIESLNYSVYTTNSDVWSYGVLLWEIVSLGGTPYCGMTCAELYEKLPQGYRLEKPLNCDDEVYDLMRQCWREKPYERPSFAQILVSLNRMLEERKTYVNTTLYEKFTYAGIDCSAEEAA
Description: as §1

PRKDC = PRKDC (Homo sapiens, UniProt P78527); details: 10 µM, inhibitor
Description: as §1

[1] = target: T6, Epidermal Growth Factor Receptor (Homo sapiens, UniProt P00533); details: 10 µM, inhibitor
T6 construct: gene EGFR
T6 sequence (P00533 whole entry): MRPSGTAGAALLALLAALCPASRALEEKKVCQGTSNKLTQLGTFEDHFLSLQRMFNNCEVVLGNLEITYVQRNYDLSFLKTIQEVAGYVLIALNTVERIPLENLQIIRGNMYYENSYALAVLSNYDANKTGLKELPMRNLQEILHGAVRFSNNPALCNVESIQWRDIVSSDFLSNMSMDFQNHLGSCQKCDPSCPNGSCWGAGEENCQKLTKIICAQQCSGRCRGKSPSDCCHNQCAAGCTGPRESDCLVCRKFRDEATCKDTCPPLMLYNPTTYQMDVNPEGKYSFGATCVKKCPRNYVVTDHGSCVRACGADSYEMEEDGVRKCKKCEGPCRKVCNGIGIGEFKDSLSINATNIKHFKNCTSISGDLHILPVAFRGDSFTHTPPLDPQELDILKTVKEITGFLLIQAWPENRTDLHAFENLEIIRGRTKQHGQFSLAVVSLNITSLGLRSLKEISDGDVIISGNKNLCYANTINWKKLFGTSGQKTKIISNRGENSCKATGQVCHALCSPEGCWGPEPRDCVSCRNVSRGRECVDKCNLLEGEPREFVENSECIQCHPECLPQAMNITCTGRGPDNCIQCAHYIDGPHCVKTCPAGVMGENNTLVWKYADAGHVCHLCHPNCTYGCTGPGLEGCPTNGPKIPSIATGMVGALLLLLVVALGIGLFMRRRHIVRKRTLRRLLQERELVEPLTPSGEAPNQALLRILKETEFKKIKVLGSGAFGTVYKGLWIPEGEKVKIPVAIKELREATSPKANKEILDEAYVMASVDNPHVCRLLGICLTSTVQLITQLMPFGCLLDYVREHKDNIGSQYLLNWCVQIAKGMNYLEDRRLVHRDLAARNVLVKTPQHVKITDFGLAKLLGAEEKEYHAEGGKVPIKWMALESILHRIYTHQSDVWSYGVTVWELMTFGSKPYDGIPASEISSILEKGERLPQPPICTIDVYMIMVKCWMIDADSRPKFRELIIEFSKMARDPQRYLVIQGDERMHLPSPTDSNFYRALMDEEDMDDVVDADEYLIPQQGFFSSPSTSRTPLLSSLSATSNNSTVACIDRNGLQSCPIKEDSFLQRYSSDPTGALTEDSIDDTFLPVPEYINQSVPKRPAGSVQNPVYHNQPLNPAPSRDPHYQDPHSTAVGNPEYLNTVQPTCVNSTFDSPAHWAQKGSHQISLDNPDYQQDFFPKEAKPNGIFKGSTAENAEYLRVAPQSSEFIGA
Description: as §1

SPHK1 = SPHK1 (Homo sapiens, UniProt Q9NYA1); details: 10 µM, inhibitor
SPHK1, sequence (Q9NYA1 whole entry): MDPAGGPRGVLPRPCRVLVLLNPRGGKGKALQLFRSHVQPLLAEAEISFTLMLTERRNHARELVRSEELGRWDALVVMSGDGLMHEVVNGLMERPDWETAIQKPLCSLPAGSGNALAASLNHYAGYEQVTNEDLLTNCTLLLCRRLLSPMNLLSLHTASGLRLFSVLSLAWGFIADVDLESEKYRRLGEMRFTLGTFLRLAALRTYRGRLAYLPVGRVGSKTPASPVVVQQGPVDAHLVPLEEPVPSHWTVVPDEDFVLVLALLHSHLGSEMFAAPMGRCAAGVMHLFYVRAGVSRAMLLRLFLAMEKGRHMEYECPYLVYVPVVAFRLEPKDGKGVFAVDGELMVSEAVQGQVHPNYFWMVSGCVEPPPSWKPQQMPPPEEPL
Description: as §1

CCC1(COc2ccc(-c3csc(-c4ccccc4C(=O)O)n3)cn2)CC1 [PF-07247685, 2-(4-{6-[(1-ethylcyclopropyl)methoxy]pyridin-3-yl}-1,3-thiazol-2-yl)benzoic acid]
ATP = 1 mM % Inhibition PF-07247685 (STK3): -7.6% | ATP = Km % Inhibition PF-07247685 (STK3): -1.8% | ATP = 1 mM % Inhibition PF-07247685 (NTRK1): 10.0% | ATP = Km % Inhibition PF-07247685 (NTRK1): 14.5% | ATP = 1 mM % Inhibition PF-07247685 (PAK4): 3.7% | ATP = Km % Inhibition PF-07247685 (PAK4): 8.3% | ATP = 1 mM % Inhibition PF-07247685 (CHEK1): 4.5% | ATP = Km % Inhibition PF-07247685 (CHEK1): -3.1% | ATP = 1 mM % Inhibition PF-07247685 (PDPK1): 2.0% | ATP = Km % Inhibition PF-07247685 (PDPK1): -0.6% | ATP = Km % Inhibition PF-07247685 (HER4): 7.2% | ATP = 100 uM % Inhibition PF-07247685 (MEK1): 11.2% | ATP = 10 uM % Inhibition PF-07247685 (SPHK2): 3.9% | ATP = Km % Inhibition PF-07247685 (mTOR): 0.4% | ATP = 1 mM % Inhibition PF-07247685 (MAPKAPK2): 3.3% | ATP = Km % Inhibition PF-07247685 (MAPKAPK2): 2.2% | ATP = 1 mM % Inhibition PF-07247685 (TEK): 8.6% | ATP = Km % Inhibition PF-07247685 (TEK): 0.6% | ATP = Km % Inhibition PF-07247685 (PRKDC): 5.4% | ATP = 1 mM % Inhibition PF-07247685 [1]: 1.2% | ATP = Km % Inhibition PF-07247685 [1]: -2.6% | ATP = Km % Inhibition PF-07247685 (SPHK1): -82.5%

O=C(O)c1sc2cc(F)sc2c1Cl [PF-07208254, 3-chloro-5-fluorothieno[3,2-b]thiophene-2-carboxylic acid]
ATP = 1 mM % Inhibition PF-07208254 (STK3): -2.3% | ATP = Km % Inhibition PF-07208254 (STK3): 5.5% | ATP = 1 mM % Inhibition PF-07208254 (NTRK1): 5.8% | ATP = Km % Inhibition PF-07208254 (NTRK1): 5.6% | ATP = 1 mM % Inhibition PF-07208254 (PAK4): 0.9% | ATP = Km % Inhibition PF-07208254 (PAK4): 6.0% | ATP = 1 mM % Inhibition PF-07208254 (CHEK1): 4.3% | ATP = Km % Inhibition PF-07208254 (CHEK1): 4.6% | ATP = 1 mM % Inhibition PF-07208254 (PDPK1): -3.1% | ATP = Km % Inhibition PF-07208254 (PDPK1): -3.2% | ATP = Km % Inhibition PF-07208254 (HER4): -11.4% | ATP = 100 uM % Inhibition PF-07208254 (MEK1): 4.1% | ATP = 10 uM % Inhibition PF-07208254 (SPHK2): -11.8% | ATP = Km % Inhibition PF-07208254 (mTOR): 5.1% | ATP = 1 mM % Inhibition PF-07208254 (MAPKAPK2): -1.5% | ATP = Km % Inhibition PF-07208254 (MAPKAPK2): 3.4% | ATP = 1 mM % Inhibition PF-07208254 (TEK): 0.7% | ATP = Km % Inhibition PF-07208254 (TEK): 0.3% | ATP = Km % Inhibition PF-07208254 (PRKDC): 8.3% | ATP = 1 mM % Inhibition PF-07208254 [1]: -7.2% | ATP = Km % Inhibition PF-07208254 [1]: -0.9% | ATP = Km % Inhibition PF-07208254 (SPHK1): -15.9%
